Source: US20240067632A1, “WEE1 Degrading Compounds and Uses Thereof” (Bristol-Myers Squibb Company, priority 2022, published 2024)

What was measured:
MKN45 cells = assay: MKN45 cell proliferation assay (Cell-Titer-Glo, 120 h); format: cell-based; conditions: for EC50: Homo sapiens, MKN-45, 120 h, Cell-Titer-Glo, growth inhibition, read-out: MKN45 Cell Prolif. 120 hr (EC50); for MKN45 Cell Prolif. 120 hr (Ymin-Obs): minimal percent of DMSO control observed in the concentrations tested
Outline: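 Cells seeded at 400/well onto pre-printed 10-point half-log dilutions (top 1 or 10 uM, 0.1% DMSO final), in triplicate, and grown 120 h at 37 C. Viability by Cell-Titer-Glo luminescence, blank-subtracted and normalised to DMSO; EC50 from four-parameter logistic fit, with observed minimal % of control recorded as Ymin-obs.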

WEE1 = molecular target: T1, WEE1 (Homo sapiens, UniProt P30291+Q96SW2); assay: WEE1-ePL degradation assay (LentiX-WEE1-ePL-GSPT1-ND cells, InCELL Hunter luminescence, 4 h); format: cell-based; conditions: 293T-LentiX WEE1-ePL cells; for 293T-LentiX WEE1-ePL Degradation 4 hr (Ymin): lower limit of the fit (0 = luciferase inhibitor, Ymax = DMSO control); for DC50: read-out: 293T-LentiX WEE1-ePL Degradation 4 hr (EC50)
T1 construct: C-terminal ePL-tagged (DiscoverX, Fremont, CA) full-length WEE1 expression construct; expressed in transfected cells; host or cells: LentiX-HEK293T (Invitrogen), lentiviral transduction; co-expressing GSPT1-GN (G576N, lacking the first 158 amino acids)
Outline: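 HEK293T cells stably expressing C-terminal ePL-tagged full-length WEE1, 2500 cells/well, treated 4 h at 37° C with a 10-point 3-fold series from 1 or 10 uM. Remaining WEE1-ePL read by InCELL Hunter luminescence after 30 min. EC50 came from a four-parameter logistic fit, with Ymax set from DMSO control.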

Row | Compound | EC50 (MKN45 cells) | MKN45 Cell Prolif. 120 hr (Ymin-Obs) (MKN45 cells) | 293T-LentiX WEE1-ePL Degradation 4 hr (Ymin) (WEE1) | DC50 (WEE1)
1 | O=C1CCC(N2Cc3cc(O[C@H]4CCN(Cc5cc6c(cn5)OCC6)C4)ccc3C2=O)C(=O)N1 (stereo partly drawn) [3-(5-{[(3S)-1-({2H,3H-furo[2,3-c]pyridin-5-yl}methyl)pyrrolidin-3-yl]oxy}-1-oxo-2,3-dihydro-1H-isoindol-2-yl)piperidine-2,6-dione] | 751 nM | 25.455 | 34 | 20.8 nM
2 | O=C1CCC(N2Cc3cc(O[C@H]4CCN(Cc5cc(-c6cccc(C7=CCOCC7)c6)ccn5)C4)ccc3C2=O)C(=O)N1 (stereo partly drawn) [3-(5-{[(3S)-1-({4-[3-(3,6-dihydro-2H-pyran-4-yl)phenyl]pyridin-2-yl}methyl)pyrrolidin-3-yl]oxy}-1-oxo-2,3-dihydro-1H-isoindol-2-yl)piperidine-2,6-dione] | 0.738 nM | 7.53 | 28 | 2 nM
3 | O=C1CCC(N2Cc3cc(O[C@H]4CCN(Cc5cc(-c6cccc(N7CCOCC7)c6)ccn5)C4)ccc3C2=O)C(=O)N1 (stereo partly drawn) [3-(5-{[(3S)-1-({4-[3-(morpholin-4-yl)phenyl]pyridin-2-yl}methyl)pyrrolidin-3-yl]oxy}-1-oxo-2,3-dihydro-1H-isoindol-2-yl)piperidine-2,6-dione] | 7.33 nM | 4.54 | 28 | 2.32 nM
4 | O=C1CCC(N2Cc3cc(O[C@H]4CCN(Cc5cc(-c6ccc(C7CCOCC7)cc6)ccn5)C4)ccc3C2=O)C(=O)N1 (stereo partly drawn) [3-(5-{[(3S)-1-({4-[4-(oxan-4-yl)phenyl]pyridin-2-yl}methyl)pyrrolidin-3-yl]oxy}-1-oxo-2,3-dihydro-1H-isoindol-2-yl)piperidine-2,6-dione] | 0.192 nM | 6.39 | 31 | 1.33 nM
5 | Cc1cc(CN2CC[C@H](Oc3ccc4c(c3)CN(C3CCC(=O)NC3=O)C4=O)C2)ncc1OCC1CCOCC1 (stereo partly drawn) [3-(5-{[(3S)-1-({4-methyl-5-[(oxan-4-yl)methoxy]pyridin-2-yl}methyl)pyrrolidin-3-yl]oxy}-1-oxo-2,3-dihydro-1H-isoindol-2-yl)piperidine-2,6-dione] | 44.9 nM | 16.9 | 42 | 9.71 nM
6 | CNC1(c2ccc3cc(CN4CC[C@H](Oc5ccc6c(c5)CN(C5CCC(=O)NC5=O)C6=O)C4)ncc3c2)COC1 (stereo partly drawn) [3-(5-{[(3S)-1-({7-[3-(methylamino)oxetan-3-yl]isoquinolin-3-yl}methyl)pyrrolidin-3-yl]oxy}-1-oxo-2,3-dihydro-1H-isoindol-2-yl)piperidine-2,6-dione] | 56.4 nM | 7.77 | 33 | 96.7 nM
7 | O=C1CCC(N2Cc3cc(O[C@H]4CCN(Cc5cnc6ccccn56)C4)ccc3C2=O)C(=O)N1 (stereo partly drawn) [3-(5-{[(3S)-1-({imidazo[1,2-a]pyridin-3-yl}methyl)pyrrolidin-3-yl]oxy}-1-oxo-2,3-dihydro-1H-isoindol-2-yl)piperidine-2,6-dione] | 933 nM | 21.75 | 33.52 | 150 nM
8 | O=C1CCC(N2Cc3cc(O[C@H]4CCN(Cc5ccc6ncccc6n5)C4)ccc3C2=O)C(=O)N1 (stereo partly drawn) [3-(5-{[(3S)-1-[(1,5-naphthyridin-2-yl)methyl]pyrrolidin-3-yl]oxy}-1-oxo-2,3-dihydro-1H-isoindol-2-yl)piperidine-2,6-dione] | 2520 nM | 54.03 | 37 | 27.9 nM
9 | O=C1CCC(N2Cc3cc(O[C@H]4CCN(Cc5cnc6cccnc6c5)C4)ccc3C2=O)C(=O)N1 (stereo partly drawn) [3-(5-{[(3S)-1-[(1,5-naphthyridin-3-yl)methyl]pyrrolidin-3-yl]oxy}-1-oxo-2,3-dihydro-1H-isoindol-2-yl)piperidine-2,6-dione] | 561 nM | 73.34 | 66 | 75.4 nM
10 | O=C1CCC(N2Cc3cc(O[C@H]4CCN(Cc5cc6ncccc6cn5)C4)ccc3C2=O)C(=O)N1 (stereo partly drawn) [3-(5-{[(3S)-1-[(1,6-naphthyridin-7-yl)methyl]pyrrolidin-3-yl]oxy}-1-oxo-2,3-dihydro-1H-isoindol-2-yl)piperidine-2,6-dione] | 960 nM | 84.48 | 67.53 | 122 nM
11 | O=C1CCC(N2Cc3cc(O[C@H]4CCN(Cc5cnc6cnccc6c5)C4)ccc3C2=O)C(=O)N1 (stereo partly drawn) [3-(5-{[(3S)-1-[(1,7-naphthyridin-3-yl)methyl]pyrrolidin-3-yl]oxy}-1-oxo-2,3-dihydro-1H-isoindol-2-yl)piperidine-2,6-dione] | 92.3 nM | 9.14 | 26.94 | 20.8 nM
12 | O=C1CCC(N2Cc3cc(O[C@H]4CCN(Cc5cc6cccnc6cn5)C4)ccc3C2=O)C(=O)N1 (stereo partly drawn) [3-(5-{[(3S)-1-[(1,7-naphthyridin-6-yl)methyl]pyrrolidin-3-yl]oxy}-1-oxo-2,3-dihydro-1H-isoindol-2-yl)piperidine-2,6-dione] | 102 nM | 9.59 | 26.505 | 14.7 nM
13 | O=C1CCC(N2Cc3cc(O[C@H]4CCN(Cc5ccc6cccnc6n5)C4)ccc3C2=O)C(=O)N1 (stereo partly drawn) [3-(5-{[(3S)-1-[(1,8-naphthyridin-2-yl)methyl]pyrrolidin-3-yl]oxy}-1-oxo-2,3-dihydro-1H-isoindol-2-yl)piperidine-2,6-dione] | 1020 nM | 65.94 | 75 | 292 nM
14 | O=C1CCC(N2Cc3cc(O[C@H]4CCN(Cc5cnc6ncccc6c5)C4)ccc3C2=O)C(=O)N1 (stereo partly drawn) [3-(5-{[(3S)-1-[(1,8-naphthyridin-3-yl)methyl]pyrrolidin-3-yl]oxy}-1-oxo-2,3-dihydro-1H-isoindol-2-yl)piperidine-2,6-dione] | 547 nM | 12.27 | 27.365 | 70.6 nM
15 | CN1CCCc2c(CN3CC[C@H](Oc4ccc5c(c4)CN(C4CCC(=O)NC4=O)C5=O)C3)cncc21 (stereo partly drawn) [3-(5-{[(3S)-1-[(1-methyl-1,2,3,4-tetrahydro-1,7-naphthyridin-5-yl)methyl]pyrrolidin-3-yl]oxy}-1-oxo-2,3-dihydro-1H-isoindol-2-yl)piperidine-2,6-dione] | 313 nM | 43.26 | 40 | 19.6 nM
16 | Cn1ncc2cc(CN3CC[C@H](Oc4ccc5c(c4)CN(C4CCC(=O)NC4=O)C5=O)C3)ccc21 (stereo partly drawn) [3-(5-{[(3S)-1-[(1-methyl-1H-indazol-5-yl)methyl]pyrrolidin-3-yl]oxy}-1-oxo-2,3-dihydro-1H-isoindol-2-yl)piperidine-2,6-dione] | > 10000 nM | 86.69 | 61 | 68.8 nM
17 | Cc1nc(CN2CC[C@H](Oc3ccc4c(c3)CN(C3CCC(=O)NC3=O)C4=O)C2)cc2ccccc12 (stereo partly drawn) [3-(5-{[(3S)-1-[(1-methylisoquinolin-3-yl)methyl]pyrrolidin-3-yl]oxy}-1-oxo-2,3-dihydro-1H-isoindol-2-yl)piperidine-2,6-dione] | 5040 nM | 50.77 | 47.56 | 31 nM
18 | O=C1CCC(N2Cc3cc(O[C@H]4CCN(Cc5cc6cnccc6cn5)C4)ccc3C2=O)C(=O)N1 (stereo partly drawn) [3-(5-{[(3S)-1-[(2,6-naphthyridin-3-yl)methyl]pyrrolidin-3-yl]oxy}-1-oxo-2,3-dihydro-1H-isoindol-2-yl)piperidine-2,6-dione] | 544 nM | 24.28 | 34.11 | 39.9 nM
19 | O=C1CCC(N2Cc3cc(O[C@H]4CCN(Cc5cc6ccncc6cn5)C4)ccc3C2=O)C(=O)N1 (stereo partly drawn) [3-(5-{[(3S)-1-[(2,7-naphthyridin-3-yl)methyl]pyrrolidin-3-yl]oxy}-1-oxo-2,3-dihydro-1H-isoindol-2-yl)piperidine-2,6-dione] | 98.8 nM | 6.92 | 28.095 | 19.3 nM
20 | Cc1ccc2cc(CN3CC[C@H](Oc4ccc5c(c4)CN(C4CCC(=O)NC4=O)C5=O)C3)cc(C)c2n1 (stereo partly drawn) [3-(5-{[(3S)-1-[(2,8-dimethylquinolin-6-yl)methyl]pyrrolidin-3-yl]oxy}-1-oxo-2,3-dihydro-1H-isoindol-2-yl)piperidine-2,6-dione] | 55.5 nM | 13.61 | 29.33 | 6.44 nM
21 | O=C1CCC(N2Cc3cc(O[C@H]4CCN(Cc5ccc6nc(Cl)ccc6c5)C4)ccc3C2=O)C(=O)N1 (stereo partly drawn) [3-(5-{[(3S)-1-[(2-chloroquinolin-6-yl)methyl]pyrrolidin-3-yl]oxy}-1-oxo-2,3-dihydro-1H-isoindol-2-yl)piperidine-2,6-dione] | 9.58 nM | 12.57 | 29.2 | 2.82 nM
